# Results from patent US20080194524A1, “Compounds For the Inhibition of Undesired Cell Proliferation and Use Thereof” (JERINI AG, priority 2003, published 2008).
# Like-named read-outs stand apart in the source and are kept apart here.
# Target: hPin1 (Protein interacting with NIMA (-kinase)) (Homo sapiens, UniProt Q13526)
# Test: protease-coupled PPIase assay, hPin1
# Assay type: biochemical
# [1] = hPin1 6 nM, substrate Ac-Ala-Ala-Ser(PO3H2)-Pro-Arg-pNA, trypsin, 35 mM HEPES pH 7.8, 6° C., read-out: Specificity of the inhibition with rotamases, Target T-1 (IC50 class)
# Sequence of hPin1 (Protein interacting with NIMA (-kinase)) (Q13526 whole entry): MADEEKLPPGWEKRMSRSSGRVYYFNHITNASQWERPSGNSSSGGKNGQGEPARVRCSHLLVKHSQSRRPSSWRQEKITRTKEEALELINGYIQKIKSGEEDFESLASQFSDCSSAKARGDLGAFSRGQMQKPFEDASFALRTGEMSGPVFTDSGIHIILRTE
IC50 [1] [nM],Compound,IC50 [nM]
< 1000,"NC(=O)[C@H](Cc1ccc2ccccc2c1)NC(=O)[C@@H]1CCCCN1C(=O)[C@H](CSCP(=O)(O)O)NC(=O)Cc1ccc(N2CCNCC2)cc1 [Compound 62, {3-[2-(1-Carbamoyl-2-naphthalen-2-yl-ethylcarbamoyl)-piperidin-1-yl]-3-oxo-2-[2-(4-piperazin-1-yl-phenyl)-acetylamino]-propylsulfanylmethyl}-phosphonicacid]",
1000 to 10000,"NC(=O)[C@H](Cc1ccc2ccccc2c1)NC(=O)[C@@H]1CCCCN1C(=O)[C@H](CSCP(=O)(O)O)NC(=O)OCCc1ccccc1 [Compound 47, {3-{2-(1-Carbamoyl-2-naphthalen-2-yl-ethylcarbamoyl)-piperidin-1-yl]-3-oxo-2-phenethyloxycarbonyl-aminopropylsulfanylmethyl}-phosphonic acid]",
1000 to 10000,"NC(=O)[C@H](Cc1ccc2ccccc2c1)NC(=O)[C@@H]1CCCCN1C(=O)[C@H](CSCP(=O)(O)O)NC(=O)c1cc2ccccc2o1 [Compound 40, {2-[(Benzofuran-2-carbonyl)-amino]-3-[2-(1-carbamoyl-2-naphthalen-2-yl-ethylcarbamoyl)-piperidin-1-yl]-3-oxo-propylsulfanylmethyl}-phosphonicacid]",
1000 to 10000,"CC(=O)N[C@@H](CSCP(=O)(O)O)C(=O)N1CCCC[C@H]1C(=O)N[C@@H](Cc1ccc2ccccc2c1)C(N)=O [Compound 30, {2-Acetylamino-3-[2-(1-carbamoyl-2-naphthalen-2-yl-ethylcarbamoyl)-piperidin-1-yl]-3-oxo-propylsulfanylmethyl}-phosphonic acid]",

# Further lines, the compound ahead of its results:
Compound,IC50 [1] [nM],IC50 [nM]
"NC(=O)[C@H](Cc1ccc2ccccc2c1)NC(=O)[C@@H]1CCCCN1C(=O)[C@H](CSCP(=O)(O)O)NC(=O)Oc1ccccc1 [Compound 46, {3-[2-(1-Carbamoyl-2-naphthalen-2-yl-ethylcarbamoyl)-piperidin-1-yl]3-oxo-2-phenoxycarbonylamino-propylsulfanylmethyl}-phosphonicacid]",,< 1000
"COc1cccc(CC(=O)N[C@@H](CSCP(=O)(O)O)C(=O)N2CCCC[C@H]2C(=O)N[C@@H](Cc2ccc3ccccc3c2)C(N)=O)c1 [Compound 61, {3-[2-(1-Carbamoyl-2-naphthalen-2-yl-ethylcarbamoyl)-piperidin-1-yl]-2-[2-(3-methoxy-phenyl)-acetylamino]-3-oxo-propylsulfanylmethyl}-phosphonicacid]",< 1000,
